Earlier results on two compounds are cited in patent publication US8883830B2, “Topical therapy for the treatment of migraines, muscle sprains, muscle spasms, spasticity and related conditions” (Afgin Pharma LLC., priority 2003, dated 2014).

For data set [1] the following is noted: relative to ergotamine.

Regarding `CN1C[C@H](C(=O)N[C@]2(C)O[C@@]3(O)[C@@H]4CCCN4C(=O)[C@H](Cc4ccccc4)N3C2=O)C[C@@H]2c3cccc4[nH]cc(c34)C[C@H]21` [Dihydroergotamine], the “emetic activity compared with ergotamine” value in data set [1] is “about 12 times less active”. As to `CNS(=O)(=O)CCc1ccc2[nH]cc(C3CCN(C)CC3)c2c1` [naratriptan], the oral bioavailability is given as approximately 70%.
